Here are results for eight molecules from US10988523B2, “Modified lipidated Relaxin B chain peptides and their therapeutic use” (Sanofi, priority 2018, dated 2021).

SMILES strings stand for the structures. *1 amine or outer side, *2 acyl side, *3 side chain or, on linkers, in order; H or OH if unused. Where a SMILES comes first, the peptide text is derived from it. Side-chain parts run from the residue outwards. [ ]: non-standard residue; d: D form. The star is where a group is joined. Arg(Me2s) = CN=C(NC)NCCC[C@H](N)C(=O)O; γGlu = O=C(O)[C@H](CCC(=O)[*:2])N[*:1]; Stearoyl = CCCCCCCCCCCCCCCCCC(=O)*; Palmitoyl = CCCCCCCCCCCCCCCC(=O)*; Cit = NC(=O)NCCC[C@H](N)C(=O)O; PEG4 = NCCOCCOCCOCCOCCC(=O)O; αMeK = C[C@](N)(CCCCN)C(=O)O; Nle = CCCC[C@H](N)C(=O)O; AEEA = NCCOCCOCC(=O)O; Aib = CC(C)(N)C(=O)O

In the experiment the target is T1, RXFP1 (Homo sapiens, UniProt Q9HBX9).
T1 construct: OVCAR5 cells expressing endogenous RXFP1; endogenous in cells; host or cells: OVCAR5 cells
T1 sequence (Q9HBX9 1-757): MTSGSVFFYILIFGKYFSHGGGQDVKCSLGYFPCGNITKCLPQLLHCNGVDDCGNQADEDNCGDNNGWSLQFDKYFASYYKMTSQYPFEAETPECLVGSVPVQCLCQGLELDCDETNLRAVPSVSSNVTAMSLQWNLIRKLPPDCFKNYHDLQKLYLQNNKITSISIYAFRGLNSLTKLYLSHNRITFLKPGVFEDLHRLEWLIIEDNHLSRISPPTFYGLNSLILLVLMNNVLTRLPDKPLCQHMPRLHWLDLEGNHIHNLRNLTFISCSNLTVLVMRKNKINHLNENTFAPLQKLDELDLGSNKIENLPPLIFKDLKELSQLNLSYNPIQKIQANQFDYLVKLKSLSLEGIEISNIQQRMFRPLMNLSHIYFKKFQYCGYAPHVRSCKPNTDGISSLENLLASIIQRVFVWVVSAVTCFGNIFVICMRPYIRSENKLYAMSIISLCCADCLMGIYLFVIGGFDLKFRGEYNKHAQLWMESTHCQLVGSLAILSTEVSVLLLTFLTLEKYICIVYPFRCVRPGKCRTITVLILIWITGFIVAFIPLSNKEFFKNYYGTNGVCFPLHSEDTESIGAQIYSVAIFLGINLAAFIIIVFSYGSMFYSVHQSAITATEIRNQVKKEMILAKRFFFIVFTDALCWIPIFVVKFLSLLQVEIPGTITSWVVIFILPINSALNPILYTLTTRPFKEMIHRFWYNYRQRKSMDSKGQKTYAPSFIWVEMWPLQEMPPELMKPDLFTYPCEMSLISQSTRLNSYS
Kind of experiment: OVCAR5 cAMP assay (HTRF), RXFP1 agonist activity. The conditions noted are these: for Emax: OVCAR-5, maximal cAMP relative to H2-relaxin maximum (100%), read-out: EMax, OVCAR 5 cells (cAMP). Format: cell-based. The essentials: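 OVCAR5 cells (endogenous RXFP1) pretreated 40 min at 37° C with 1 mM IBMX, then exposed to peptides in serum-free medium for 30 min at 37° C. Lysate cAMP read by HTRF; EC50 from variable-slope sigmoidal fit; Emax as % of H2-relaxin maximal cAMP in same run.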

Broadly, the Emax is the greatest response seen or fitted, relative to the assay's reference. As for `CCCCCCCCCCCCCCCCCC(=O)N[C@@H](CCC(=O)N[C@@H](CCC(=O)N[C@@H](CCC(=O)NCCOCCOCC(=O)NCCOCCOCC(=O)NCCOCCOCC(=O)NCCCC[C@H](NC(=O)[C@H](CCCCNC(C)=O)NC(=O)[C@H](CCCCN)NC(=O)[C@H](CCCNC(=NC)NC)NC(=O)C(C)(C)NC(=O)[C@H](CO)NC(=O)[C@H](Cc1c[nH]c2ccccc12)NC(=O)[C@@H](NC(=O)[C@H](CO)NC(=O)[C@H](CCCC)NC(=O)CNC(=O)[C@H](CCC(=O)O)NC(=O)C(C)(C)NC(=O)C(C)(C)NC(=O)[C@@H](NC(=O)[C@H](CCCCNC(C)=O)NC(=O)[C@H](C)NC(=O)[C@H](CCCNC(=N)N)NC(=O)[C@@H](NC(=O)[C@H](CCCCN)NC(=O)[C@H](CCC(=O)O)NC(=O)[C@H](CCCNC(=N)N)NC(=O)CNC(=O)[C@H](CCC(=O)O)NC(=O)[C@H](CC(C)C)NC(C)=O)C(C)C)[C@@H](C)CC)[C@@H](C)O)C(N)=O)C(=O)O)C(=O)O)C(=O)O` [compound 148] (Ac-LEGREKVRAK(Ac)I[Aib][Aib]EG[Nle]STWS[Aib][Arg(Me2s)]KK(Ac)K([AEEA-AEEA-AEEA-γGlu-γGlu-γGlu-Stearoyl])-NH2), the maximum response (Emax) came to 94%.
One may read the EC50 as the concentration that produces a half-maximal response. As to `CCCCCCCCCCCCCCCC(=O)N[C@@H](CCC(=O)N[C@@H](CCC(=O)N[C@@H](CCC(=O)NCCCC[C@H](NC(=O)[C@H](CCCCN)NC(=O)[C@H](CCCNC(=N)N)NC(=O)C(C)(C)NC(=O)[C@H](CO)NC(=O)[C@H](Cc1c[nH]c2ccccc12)NC(=O)[C@@H](NC(=O)[C@H](CO)NC(=O)[C@H](CCCC)NC(=O)CNC(=O)[C@H](CCC(=O)O)NC(=O)C(C)(C)NC(=O)C(C)(C)NC(=O)[C@@H](NC(=O)[C@H](CCC(N)=O)NC(=O)[C@H](C)NC(=O)[C@H](CCCNC(=N)N)NC(=O)[C@@H](NC(=O)[C@H](CCCCN)NC(=O)[C@H](CCC(=O)O)NC(=O)[C@H](CCCNC(=N)N)NC(=O)CNC(=O)[C@H](CCC(=O)O)NC(=O)[C@H](CC(C)C)NC(C)=O)C(C)C)[C@@H](C)CC)[C@@H](C)O)C(N)=O)C(=O)O)C(=O)O)C(=O)O` [compound 8] (Ac-LEGREKVRAQI[Aib][Aib]EG[Nle]STWS[Aib]RKK([γGlu-γGlu-γGlu-Palmitoyl])-NH2), the maximal response (Emax) is 98%. Moreover, the EC50 (OVCAR5 cells, cAMP HTRF, read-out: EC50 (nM), OVCAR 5 cells (cAMP)) worked out at 26.7 nM.
As for `CCCCCCCCCCCCCCCC(=O)N[C@@H](CCC(=O)N[C@@H](CCC(=O)N[C@@H](CCC(=O)N[C@@H](CCC(=O)NCCOCCOCC(=O)NCCOCCOCC(=O)NCCOCCOCC(=O)NCCOCCOCC(=O)NCCCC[C@H](NC(=O)[C@H](CCCCNC(C)=O)NC(=O)[C@H](CCCCN)NC(=O)[C@H](CCCNC(=N)N)NC(=O)C(C)(C)NC(=O)[C@H](CO)NC(=O)[C@H](Cc1ccccc1)NC(=O)[C@@H](NC(=O)[C@H](CO)NC(=O)[C@H](CCCC)NC(=O)CNC(=O)[C@H](CCC(=O)O)NC(=O)C(C)(C)NC(=O)C(C)(C)NC(=O)[C@@H](NC(=O)[C@H](CCCCNC(C)=O)NC(=O)[C@H](C)NC(=O)[C@H](CCCNC(=N)N)NC(=O)[C@@H](NC(=O)[C@H](CCCCN)NC(=O)[C@H](CCC(=O)O)NC(=O)[C@H](CCCNC(=N)N)NC(=O)CNC(=O)[C@H](CCC(=O)O)NC(=O)[C@H](CC(C)C)NC(C)=O)C(C)C)[C@@H](C)CC)[C@@H](C)O)C(N)=O)C(=O)O)C(=O)O)C(=O)O)C(=O)O` [compound 147] (Ac-LEGREKVRAK(Ac)I[Aib][Aib]EG[Nle]STFS[Aib]RKK(Ac)K([AEEA-AEEA-AEEA-AEEA-γGlu-γGlu-γGlu-γGlu-Palmitoyl])-NH2), the maximal response (Emax) was 86%.
Same read-out and setting: with `CCCCCCCCCCCCCCCC(=O)N[C@@H](CCC(=O)N[C@@H](CCC(=O)NCCCC[C@H](NC(=O)[C@H](CCCNC(=N)N)NC(=O)C(C)(C)NC(=O)[C@H](CO)NC(=O)[C@H](Cc1c[nH]c2ccccc12)NC(=O)[C@@H](NC(=O)[C@H](CO)NC(=O)[C@H](CCSC)NC(=O)CNC(=O)[C@H](CCC(=O)O)NC(=O)C(C)(C)NC(=O)C(C)(C)NC(=O)[C@@H](NC(=O)[C@H](CCC(N)=O)NC(=O)[C@H](C)NC(=O)[C@H](CCCNC(=N)N)NC(=O)[C@@H](NC(=O)[C@H](CCCCN)NC(=O)[C@H](CCC(=O)O)NC(=O)[C@H](CCCNC(=N)N)NC(=O)CNC(=O)[C@H](CCC(=O)O)NC(=O)[C@H](CC(C)C)NC(C)=O)C(C)C)[C@@H](C)CC)[C@@H](C)O)C(N)=O)C(=O)O)C(=O)O` [compound 5] (Ac-LEGREKVRAQI[Aib][Aib]EGMSTWS[Aib]RK([γGlu-γGlu-Palmitoyl])-NH2) the figure was 105%.
Same read-out and setting: with `CCCCCCCCCCCCCCCCCC(=O)N[C@@H](CCC(=O)N[C@@H](CCC(=O)N[C@@H](CCC(=O)N[C@@H](CCC(=O)N[C@@H](CCC(=O)NCCCC[C@H](NC(=O)CCOCCOCCOCCOCCNC(=O)CCOCCOCCOCCOCCNC(=O)[C@H](CCCCN)NC(=O)[C@H](CCCCN)NC(=O)[C@H](CCCCN)NC(=O)[C@H](CCCNC(=N)N)NC(=O)C(C)(C)NC(=O)[C@H](CO)NC(=O)[C@H](Cc1c[nH]c2ccccc12)NC(=O)[C@@H](NC(=O)[C@H](CO)NC(=O)[C@H](CCCC)NC(=O)CNC(=O)[C@H](CCC(=O)O)NC(=O)C(C)(C)NC(=O)C(C)(C)NC(=O)[C@@H](NC(=O)[C@H](CCC(N)=O)NC(=O)[C@H](C)NC(=O)[C@H](CCCNC(=N)N)NC(=O)[C@@H](NC(=O)[C@H](CCCCN)NC(=O)[C@H](CCC(=O)O)NC(=O)[C@H](CCCNC(=N)N)NC(=O)CNC(=O)[C@H](CCC(=O)O)NC(=O)[C@H](CC(C)C)NC(C)=O)C(C)C)[C@@H](C)CC)[C@@H](C)O)C(N)=O)C(=O)O)C(=O)O)C(=O)O)C(=O)O)C(=O)O` [compound 122] (Ac-LEGREKVRAQI[Aib][Aib]EG[Nle]STWS[Aib]RKKK[PEG4][PEG4]K([γGlu-γGlu-γGlu-γGlu-γGlu-Stearoyl])-NH2) the figure was 93%; with `CCCCCCCCCCCCCCCCCC(=O)N[C@@H](CCC(=O)N[C@@H](CCC(=O)N[C@@H](CCC(=O)NCCOCCOCC(=O)NCCOCCOCC(=O)NCCOCCOCC(=O)NCCOCCOCC(=O)NCCCC[C@H](NC(=O)[C@H](CCCCNC(C)=O)NC(=O)[C@H](C)NC(=O)[C@H](CCCNC(N)=O)NC(=O)[C@](C)(CCCCN)NC(=O)[C@H](CO)NC(=O)[C@H](Cc1c[nH]c2ccccc12)NC(=O)[C@@H](NC(=O)[C@H](CO)NC(=O)[C@H](CCCC)NC(=O)CNC(=O)[C@H](CCC(=O)O)NC(=O)C(C)(C)NC(=O)C(C)(C)NC(=O)[C@@H](NC(=O)[C@H](CCCCNC(C)=O)NC(=O)[C@H](C)NC(=O)[C@H](CCCNC(=N)N)NC(=O)[C@@H](NC(=O)[C@H](CCCCN)NC(=O)[C@H](CCC(=O)O)NC(=O)[C@H](CCCNC(=N)N)NC(=O)CNC(=O)[C@H](CCC(=O)O)NC(=O)[C@H](CC(C)C)NC(C)=O)C(C)C)[C@@H](C)CC)[C@@H](C)O)C(N)=O)C(=O)O)C(=O)O)C(=O)O` [compound 132] (Ac-LEGREKVRAK(Ac)I[Aib][Aib]EG[Nle]STWS[αMeK][Cit]AK(Ac)K([AEEA-AEEA-AEEA-AEEA-γGlu-γGlu-γGlu-Stearoyl])-NH2), 87%; with `CCCCCCCCCCCCCCCC(=O)N[C@@H](CCC(=O)N[C@@H](CCC(=O)N[C@@H](CCC(=O)NCCOCCOCC(=O)NCCCC[C@H](NC(=O)[C@H](CCCCN)NC(=O)[C@H](CCCNC(=N)N)NC(=O)C(C)(C)NC(=O)[C@H](CO)NC(=O)[C@H](Cc1c[nH]c2ccccc12)NC(=O)[C@@H](NC(=O)[C@H](CO)NC(=O)[C@H](CCCC)NC(=O)CNC(=O)[C@H](CCC(=O)O)NC(=O)C(C)(C)NC(=O)C(C)(C)NC(=O)[C@@H](NC(=O)[C@H](CCC(N)=O)NC(=O)[C@H](C)NC(=O)[C@H](CCCNC(=N)N)NC(=O)[C@@H](NC(=O)[C@H](CCCCN)NC(=O)[C@H](CCC(=O)O)NC(=O)[C@H](CCCNC(=N)N)NC(=O)CNC(=O)[C@H](CCC(=O)O)NC(=O)[C@H](CC(C)C)NC(C)=O)C(C)C)[C@@H](C)CC)[C@@H](C)O)C(N)=O)C(=O)O)C(=O)O)C(=O)O` [compound 55] (Ac-LEGREKVRAQI[Aib][Aib]EG[Nle]STWS[Aib]RKK([AEEA-γGlu-γGlu-γGlu-Palmitoyl])-NH2), 94%.
Same read-out and setting: with `CCCCCCCCCCCCCCCC(=O)NCCOCCOCC(=O)NCCCC[C@H](NC(=O)[C@H](CCCCN)NC(=O)[C@H](CCCNC(=N)N)NC(=O)C(C)(C)NC(=O)[C@H](CO)NC(=O)[C@H](Cc1c[nH]c2ccccc12)NC(=O)[C@@H](NC(=O)[C@H](CO)NC(=O)[C@H](CCCC)NC(=O)CNC(=O)[C@H](CCC(=O)O)NC(=O)C(C)(C)NC(=O)C(C)(C)NC(=O)[C@@H](NC(=O)[C@H](CCC(N)=O)NC(=O)[C@H](C)NC(=O)[C@H](CCCNC(=N)N)NC(=O)[C@@H](NC(=O)[C@H](CCCCN)NC(=O)[C@H](CCC(=O)O)NC(=O)[C@H](CCCNC(=N)N)NC(=O)CNC(=O)[C@H](CCC(=O)O)NC(=O)[C@H](CC(C)C)NC(C)=O)C(C)C)[C@@H](C)CC)[C@@H](C)O)C(N)=O` [compound 50] (Ac-LEGREKVRAQI[Aib][Aib]EG[Nle]STWS[Aib]RKK([AEEA-Palmitoyl])-NH2) the figure was 95%.
